GI50 and TGI data for 24 compounds are collected here from PubChem BioAssay (NCI).

SMILES strings stand for the structures. “And” between values parts separate entries of the source, which are not always exact repeats. Equal values may be shown once.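 Five concentrations, 48 hours, 96-well plates. Here, GI50 denotes the concentration required for 50% inhibition of growth. The concentration for full growth arrest is given as TGI.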

Holding throughout (assay): NCI-60 cell line screen, 48 h
Assay [1] has as its system EKVX NSCLC.
The test system of assay [2] is KM12 colon.
Assay [3] concerns OVCAR-4 ovarian.
Assay [4] has as its system COLO 205 colon.
In assay [5] the test system is ACHN renal.
In assay [6] the test system is HL-60(TB) leukemia.
For assay [7], the system named is MOLT-4 leukemia.
Assay [8] relates to CAKI-1 renal.
Assay [9] relates to UO-31 renal.
Assay [10] has as its system RXF 393 renal.

For `O=c1n(CC2CO2)c(=O)n(CC2CO2)n1CC1CO1` (stereo not drawn), the GI50 in assay [1] is 32.7 µM; in [2], 31.5 µM; in assay [3] it was 19.2 µM; in [4], 6.04 µM; in assay [5] it was 2.69 µM; in [6] it was 4.99 µM. Besides, the GI50 in assay [7] is 4.46 µM; in [8] it was 2.22 µM; in assay [9], 7.86 µM. Besides, the TGI in [1] is above 100 µM; in assay [2] it was above 100 µM; in [3], above 85 µM; in assay [4] it was 41.5 µM; in assay [5], above 100 µM; in assay [6], above 49.4 µM. Further, the TGI in assay [7] is above 100 µM; in assay [8], 21.7 µM; in assay [9], above 76.2 µM.
With `O=C1/C(=C/c2ccc([N+](=O)[O-])cc2)COc2ccc(O)c(O)c21`, the GI50 in assay [1] is 1.77 µM; in assay [2], 1.58 µM; in assay [3] it was 1.44 µM; in assay [4], 1.47 µM; in assay [5] it was 1.5 µM; in [6] it was 0.896 µM. In addition, the GI50 in assay [7] was 1.29 µM; in [8], 1.27 µM; in [9] it was 0.696 µM. In addition, the TGI in assay [1] was 3.72 µM; in assay [2] it was 3.47 µM; in assay [3], 2.78 µM; in assay [4], 3.69 µM; in [5], 2.92 µM; in assay [6] it was 6.45 µM. The TGI in assay [7] is above 100 µM; in assay [8] it was 2.54 µM; in [9], 2.23 µM.
Take `CC1(C)OC(=O)C(=Cc2ccc(O)cc2)C(=O)O1`: the TGI in assay [1], in assay [2], in assay [3], in assay [4], in assay [5] and in assay [6] was above 100 µM each time. The TGI in [7], in [8] and in assay [9] was above 100 µM each time.
On to `CC(=O)[O][Hg][c]1c(N)c(C)cc(C)c1F`, for which the GI50 in assay [10] is 1.52 µM; in assay [2] it was 10.6 µM; in [4], 1.91 µM; in assay [5], 1.61 µM; in [6] it was 1.44 µM; in [7], 1.22 µM. For the same compound, the GI50 in assay [8] was 3.4 µM; in [9] it was 1.64 µM. Further, the TGI in [10] is 2.88 µM; in assay [2] it was 22.7 µM; in assay [4], 3.53 µM; in assay [5], 3.08 µM; in assay [6], 5.17 µM; in assay [7], 7.12 µM. The TGI in [8] worked out at 12.4 µM; in assay [9], 3.15 µM.
As for `O=[S@@]1Nc2ccc(Br)cc2S1`, the TGI in [1] is above 100 µM; in assay [2], above 100 µM; in assay [5], above 100 µM; in assay [6], 65.2 µM; in assay [7], above 100 µM; in assay [8], above 100 µM. Besides, in assay [9], the TGI came to 7.43 µM.
As for `COc1c2ccoc2c(/C=C/C=O)c2oc(-c3ccccc3)cc(=O)c12`, the GI50 was 4.26 µM in assay [10]; 16.5 µM in assay [2]; 3.2 µM in [3]; 27.7 µM in assay [4]; 20.8 µM in assay [5]; 2.33 µM in assay [6]. Further, the GI50 in [7] was 2.06 µM; in assay [8], 15.4 µM; in assay [9] it was 3.62 µM. Besides, the TGI in [10] is 14.7 µM; in assay [2], 43.5 µM; in [3], above 100 µM; in assay [4], above 100 µM; in assay [5], above 100 µM; in assay [6], 5.62 µM. In addition, the TGI is 5.24 µM in assay [7], above 100 µM in assay [8] and 35.2 µM in assay [9].
`CSCCCN(CCCSC)CCCSC`: the TGI is above 100 µM in [1]; above 100 µM in [2]; above 100 µM in assay [3]; above 100 µM in assay [4]; 50.7 µM in [6]; above 100 µM in [7]. This compound had a TGI in assay [9] above 100 µM.
Take `COc1cc2cnc3c4cc(OC(C)C)c(OC)cc4ccc3c2cc1OC`: the TGI in assay [1], in [2], in [3], in assay [4], in assay [5] and in assay [7] was above 100 µM in each case. Also, the TGI in assay [8] and in assay [9] was above 100 µM each time.
Regarding `COC(=O)[C@@H](C)C[C@H](Cc1ccc(F)cc1)NC(=O)c1csc([C@@H](C[C@H](C(C)C)N(C)C(=O)[C@@H](NC(=O)[C@H]2CCCCN2C)C(C)C)OC(C)=O)n1`, the TGI in assay [1] is above 16.7 µM; in assay [2] it was above 16.7 µM; in assay [3] it was above 16.7 µM; in assay [4], 0.0651 µM; in [5] it was above 16.7 µM; in assay [6], 0.00229 µM and 0.00952 µM. The TGI in assay [7] and in assay [9] was above 16.7 µM in each case. The GI50 is 0.000953 µM and 0.00636 µM in assay [2]; 0.00641 µM in assay [4]; 0.134 µM in [5]; 0.00245 µM and 0.00876 µM in assay [7].
Turning to `COc1cccc(NC(=O)CC(=O)n2nc(C)c(N=Nc3ccccc3)c2C)c1`, the TGI in assay [1], in [2], in [3], in [4], in [5] and in [7] was above 100 µM each time. For the same compound, the TGI in assay [8] and in assay [9] was above 100 µM throughout.
Take `O=c1cc(-c2cccc(O)c2)[nH]c2cc3c(cc12)OCO3`: the TGI in assay [10] is above 100 µM; in assay [2], above 100 µM; in assay [3], above 100 µM; in assay [4], 9.32 µM; in assay [5], above 100 µM; in [6] it was above 19.9 µM. In addition, the TGI in assay [7] and in assay [9] was above 100 µM in each case.
`Oc1ccc(Cl)cc1-c1cc(-c2ccccc2Cl)[nH]n1`: the GI50 in assay [2] was 2.41 µM; in assay [3], 0.28 µM; in assay [4] it was 27.3 µM; in assay [5], 8.17 µM; in [6], 4.22 µM; in [7], 5.38 µM. Besides, the GI50 in [8] was 2.87 µM; in assay [9], 3.77 µM. In addition, the TGI in assay [2], in assay [3], in assay [4], in assay [5], in [6] and in assay [7] was above 100 µM in each case. Also, the TGI in assay [8] and in assay [9] was above 100 µM throughout.
`CCOC(=O)Nc1nc2ccc(OCC)cc2s1`: the GI50 is above 53.4 µM in assay [10]; 3.31 µM in assay [2]; above 82.5 µM in [3]; 10.4 µM in [4]; above 100 µM in assay [5]; 7.56 µM in [6]. Also, the figures for the GI50 in [7], in [8] and in [9] were 59.4 µM, above 100 µM and above 100 µM, respectively. For the same compound, the TGI in assay [10], in [2], in assay [3], in [4], in assay [5] and in assay [6] was above 100 µM throughout. Further, the TGI in assay [7], in assay [8] and in [9] was above 100 µM throughout.
As to `CNC(=O)c1cc(Oc2ccc3nc(NC(=O)Nc4ccc(Cl)c(C(F)(F)F)c4)sc3c2)ccn1`, the GI50 in [10] was 1.93 µM; in assay [2], 3.41 µM; in [5], 1.85 µM; in assay [6], above 100 µM. Further, the TGI is 4.57 µM in [10], above 100 µM in assay [2], 3.8 µM in assay [5] and above 100 µM in assay [6].
On to `CC1=C(C(=O)Nc2ccc(F)c(Cl)c2)C(c2ccc(Cl)cc2)NC(=O)N1` (stereo not drawn), for which the GI50 is 17.6 µM in [10]; 18.5 µM in [1]; 24.2 µM in assay [2]; 37.5 µM in assay [4]; 22 µM in [5]; 0.083 µM in assay [6]. Further, the GI50 in [8] was 21 µM; in [9], 15.1 µM. The TGI is 37.2 µM in [10]; 49.9 µM in [1]; 52.1 µM in assay [2]; above 100 µM in [4]; 63 µM in assay [5]; 1.87 µM in assay [6]. Besides, the TGI in [8] turned out to be 71.2 µM; in assay [9] it was 30.1 µM.
Take `CCOC(=O)COc1cccc2c1C(=O)CCO2`: the TGI in assay [1], in assay [2], in assay [3], in assay [4], in assay [5] and in assay [6] was above 100 µM throughout. Moreover, the TGI in assay [7], in [8] and in assay [9] was above 100 µM each time.
For `COC(=O)[C@@]12C3=NO[C@]1(C(=O)OC)C(O[Si](C)(C)C(C)(C)C)[C@H]1OC(C)(C)O[C@H]1[C@@H]2C(OCc1ccccc1)CC3` (stereo partly drawn), the TGI in [1] is above 100 µM; in assay [2], above 100 µM; in [3] it was 97.2 µM; in assay [4] it was above 100 µM; in [5], 28 µM; in assay [6], above 100 µM. Moreover, the TGI in assay [7] and in assay [9] was above 100 µM each time.
With `N#CC(C#N)=c1ccc(=C2NCC3CCCN23)cc1` (stereo not drawn), the TGI in [10], in assay [2], in [3], in [4], in assay [6] and in assay [7] was above 100 µM throughout. Further, the TGI in [8] and in [9] was above 100 µM in each case.
In the case of `Clc1cccc(Cc2cn3cc(-c4ccccc4)nc3s2)c1Cl`, the GI50 in assay [10] was 3.13 µM; in assay [2], 6.35 µM; in assay [3], 3.85 µM; in assay [4], above 100 µM; in [5], 30.2 µM; in assay [6] it was above 100 µM. In addition, the GI50 in assay [7], in [8] and in assay [9] was above 100 µM throughout. The TGI was 18.7 µM in [10]; above 100 µM in assay [2]; 55.2 µM in [3]; above 100 µM in assay [4]; above 100 µM in assay [5]; above 100 µM in [6]. In addition, the TGI in assay [7], in assay [8] and in assay [9] was above 100 µM in each case.
With `COc1ccc2c(c1)C1(C=N2)CCN(C(C)=O)CC1`, the TGI in assay [1], in assay [2], in [3], in assay [4], in assay [5] and in assay [6] was above 100 µM each time. Besides, the TGI in assay [7] and in assay [8] was above 100 µM throughout.
Take `CCN(CC)CC(C(=O)Nc1c(C)cccc1C)/C(C)=N\NC(=O)C[N+](C)(C)C` (stereo not drawn): the TGI in assay [10], in assay [2], in assay [3], in [4], in assay [5] and in assay [6] was above 100 µM each time. Moreover, the TGI in [7], in [8] and in assay [9] was above 100 µM each time.
As to `COc1ccc2c(c1)C(=O)/C(=C/c1ccc(OCC(=O)Nc3nccs3)cc1)O2`, the GI50 in [1] was 2.04 µM; in assay [2], 0.431 µM; in assay [3], 2.26 µM; in assay [4], 0.979 µM; in assay [5], 2.67 µM; in assay [6], 0.187 µM. Besides, the GI50 in [7] is 2.09 µM; in [8], 0.392 µM; in [9], 0.215 µM. The TGI in assay [2] is 18.8 µM; in assay [3], 14.5 µM; in [4], 5.09 µM; in assay [5] it was 20.5 µM; in assay [6], 0.413 µM; in assay [7], above 100 µM. Also, in assay [9], the TGI was determined as 0.374 µM.
As to `O=C(CSC(=S)N1CCCCC1)Nc1nc2c(s1)CCCC2`, the TGI is above 100 µM in assay [2]; above 100 µM in assay [3]; above 100 µM in [4]; above 100 µM in [5]; 33.8 µM in assay [6]; 47.8 µM in [7]. This compound also registered a TGI in assay [9] above 100 µM.
Regarding `CCOC(=O)C1=C(C)CC2C(=O)OC(=O)C2C1(C)C` (stereo not drawn), the TGI in assay [10], in assay [1], in assay [2], in assay [4], in assay [5] and in [6] was above 100 µM each time. The TGI in [7] and in [9] was above 100 µM in each case.
